According to ChEMBL document CHEMBL5150045, “Structure-Guided Design of Halofuginone Derivatives as ATP-Aided Inhibitors Against Bacterial Prolyl-tRNA Synthetase” (J Med Chem, 2022):
Values after ≈ are worked out from the molar mass of the structure shown. Values joined by “and” are separate entries in the source; they are usually repeats but may differ in a detail not shown here. Identical values can stand only once. Active and inactive are the calls of the source. The calls are words filed in the database; no cut-off is given here.

Legend:
Escherichia coli [1] = assay: Antibacterial activity against drug-resistance induced Escherichia coli ATCC25922 assessed as assessed as reversal of drug resistance measured after 10 days in compound free media by broth microdilution method; format: functional; settings: ATCC25922, 240 h, time 10 day
[2] = Cytotoxicity against human HepG2 cells; format: toxicity, cell-based
Escherichia coli [3] = assay: Antibacterial activity against Escherichia coli ATCC25922 assessed as prevention of visible growth by broth microdilution method; format: functional
[4] = Binding affinity to methicillin-resistant Staphylococcus aureus ProRS expressed in Escherichia coli assessed as dissociation constant by microscale thermophoresis assay
Staphylococcus aureus [5] = assay: Antibacterial activity against Staphylococcus aureus ATCC25923 assessed as prevention of visible growth by broth microdilution method; format: functional
Staphylococcus aureus [6] = assay: Antibacterial activity against Staphylococcus aureus ATCC29213 assessed as prevention of visible growth by broth microdilution method; format: functional
[7] = Binding affinity to methicillin-resistant Staphylococcus aureus ProRS expressed in Escherichia coli assessed as dissociation constant in presence of 0.1 nM ATP by microscale thermophoresis assay
Shigella flexneri = assay: Antibacterial activity against Shigella flexneri CMCC51572 assessed as prevention of visible growth by broth microdilution method; format: functional
Escherichia coli [8] = assay: Ratio of MBC99.9 for Escherichia coli ATCC25922 to MIC for Escherichia coli ATCC25922; format: functional
[9] = Binding affinity to methicillin-resistant Staphylococcus aureus ProRS expressed in Escherichia coli assessed as dissociation constant in presence of 0.05 nM ATP by microscale thermophoresis assay
[10] = Binding affinity to methicillin-resistant Staphylococcus aureus ProRS expressed in Escherichia coli assessed as dissociation constant in presence of 0.5 nM ATP by microscale thermophoresis assay
[11] = Binding affinity to methicillin-resistant Staphylococcus aureus ProRS expressed in Escherichia coli assessed as dissociation constant in presence of 1 nM ATP by microscale thermophoresis assay
Staphylococcus aureus [12] = assay: Ratio of MBC99.9 for methicillin-resistant Staphylococcus aureus 252 to MIC for methicillin-resistant Staphylococcus aureus 252; format: functional
Staphylococcus aureus [13] = assay: Bacteriostatic effect against methicillin-resistant Staphylococcus aureus 252 assessed as decrease in CFU/ml at 4 times of MIC measured for 24 hrs by CLSI based time-kill kinetic assays; format: functional
[14] = (§1) Inhibition of methicillin-resistant Staphylococcus aureus ProRS expressed in Escherichia coli assessed as generation of inorganic monophosphate by pre-transfer editing-based experiment
[15] = Selectivity index, ratio of CC50 for human HepG2 cells to MIC for methicillin-resistant Staphylococcus aureus 252; format: toxicity; settings: read-out: Selectivity Index
Staphylococcus aureus [16] = assay: Bactericidal activity against methicillin-resistant Staphylococcus aureus 252 assessed as bacterial killing measured after 24 hrs incubation by CLSI method; format: functional; settings: read-out: MBC99.9
[17] = Binding affinity to methicillin-resistant Staphylococcus aureus ProRS expressed in Escherichia coli assessed as dissociation constant in presence of 0.2 nM ATP by microscale thermophoresis assay
Homo sapiens [18] = organism: Homo sapiens; assay: Inhibition of human ProRS expressed in Escherichia coli assessed as change in melting temperature in presence of AMPPNP at 0.5 mM by fluorescence-based thermal shift assay
Escherichia coli [19] = assay: Bacteriostatic effect against Escherichia coli ATCC25922 assessed as decrease in CFU/ml at 1 to 4 times of MIC measured for 0 to 12 hrs by CLSI based time-kill kinetic assays; format: functional, organism-based; settings: time 0-12 hrs
Salmonella typhi = assay: Antibacterial activity against Salmonella typhi CMCC50094 assessed as prevention of visible growth by broth microdilution method; format: functional, Salmonella enterica subsp. enterica serovar Typhi; settings: Salmonella enterica
Staphylococcus aureus [20] = assay: Bacteriostatic effect against methicillin-resistant Staphylococcus aureus 252 assessed as decrease in CFU/ml at 1 to 4 times of MIC measured for 0 to 12 hrs by CLSI based time-kill kinetic assays; format: functional, organism-based; settings: time 0-12 hrs
Staphylococcus aureus [21] = assay: Antibacterial activity against methicillin-resistant Staphylococcus aureus 252 assessed as prevention of visible growth by broth microdilution method; format: functional
[22] = Binding affinity to methicillin-resistant Staphylococcus aureus ProRS expressed in Escherichia coli assessed as dissociation constant in presence of 2 nM ATP by microscale thermophoresis assay
Staphylococcus aureus [23] = assay: Resistance development in methicillin-resistant Staphylococcus aureus 252 assessed as fold increase in resistance after 15 days serial passage upto 256 ug/ml; format: functional; settings: dose <= 256 µg/ml; time 15 day
Staphylococcus aureus [24] = assay: Antibacterial activity against drug-resistance induced methicillin-resistant Staphylococcus aureus 252 assessed as assessed as reversal of drug resistance measured after 10 days in compound free media by broth microdilution method; format: functional; settings: Staphylococcus aureus, 252, 240 h; time 10 day
Staphylococcus aureus [25] = assay: Inhibition of methicillin-resistant Staphylococcus aureus ProRS expressed in Escherichia coli assessed as change in melting temperature in presence of AMPPNP at 0.5 mM by fluorescence-based thermal shift assay
Escherichia coli [26] = assay: Bacteriostatic effect against Escherichia coli ATCC25922 assessed as decrease in CFU/ml at 4 times of MIC measured for 24 hrs by CLSI based time-kill kinetic assays; format: functional
Escherichia coli [27] = assay: Resistance development in Escherichia coli ATCC25922 assessed as fold increase in resistance after 15 days serial passage upto 256 ug/ml; format: functional; settings: dose <= 256 µg/ml; time 15 day
Staphylococcus aureus [28] = assay: Antibacterial activity against methicillin-resistant Staphylococcus aureus R3708 assessed as prevention of visible growth by broth microdilution method; format: functional
Saccharomyces cerevisiae = assay: Inhibition of Saccharomyces cerevisiae ProRS expressed in Escherichia coli assessed as generation of inorganic monophosphate at 0 to 100 uM by pre-transfer editing-based experiment; settings: dose 0-100 µM, DDE = dose-dependent effect
[29] = target: T1, Proline--tRNA ligase (Escherichia coli) (UniProt P16659); assay: Inhibition of Escherichia coil ProRS expressed in Escherichia coli assessed as change in melting temperature in presence of AMPPNP at 0.5 mM by fluorescence-based thermal shift assay
T1 sequence (whole entry): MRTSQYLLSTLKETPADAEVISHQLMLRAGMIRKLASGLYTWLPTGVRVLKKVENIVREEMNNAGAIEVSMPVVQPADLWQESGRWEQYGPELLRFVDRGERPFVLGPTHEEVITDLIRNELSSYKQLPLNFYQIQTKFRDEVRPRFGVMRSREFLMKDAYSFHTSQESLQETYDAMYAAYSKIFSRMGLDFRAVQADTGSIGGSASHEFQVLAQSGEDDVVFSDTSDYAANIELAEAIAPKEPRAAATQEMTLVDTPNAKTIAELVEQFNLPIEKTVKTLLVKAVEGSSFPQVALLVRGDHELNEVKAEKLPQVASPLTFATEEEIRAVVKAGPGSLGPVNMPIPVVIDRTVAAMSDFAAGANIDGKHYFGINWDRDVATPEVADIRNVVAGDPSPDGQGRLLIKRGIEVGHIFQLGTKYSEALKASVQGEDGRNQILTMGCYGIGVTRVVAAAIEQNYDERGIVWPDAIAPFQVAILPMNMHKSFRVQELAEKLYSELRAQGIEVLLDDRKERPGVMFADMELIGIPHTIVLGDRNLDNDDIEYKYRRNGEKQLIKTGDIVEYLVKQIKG

[30] = target: T1, Proline--tRNA ligase (Escherichia coli); assay: Inhibition of Escherichia coli ProRS expressed in Escherichia coli assessed as generation of inorganic monophosphate by pre-transfer editing-based experiment; settings: dose 0-100 µM, DDE = dose-dependent effect
Staphylococcus aureus [31] = assay: as §1; settings: dose 0-100 µM, DDE = dose-dependent effect
[32] = target: T2, Proline--tRNA ligase (Salmonella typhi) (UniProt Q8XEY9); assay: Inhibition of Salmonella typhi ProRS expressed in Escherichia coli assessed as change in melting temperature in presence of AMPPNP at 0.5 mM by fluorescence-based thermal shift assay; settings: Salmonella enterica subsp. enterica serovar Typhi
T2 sequence (whole entry): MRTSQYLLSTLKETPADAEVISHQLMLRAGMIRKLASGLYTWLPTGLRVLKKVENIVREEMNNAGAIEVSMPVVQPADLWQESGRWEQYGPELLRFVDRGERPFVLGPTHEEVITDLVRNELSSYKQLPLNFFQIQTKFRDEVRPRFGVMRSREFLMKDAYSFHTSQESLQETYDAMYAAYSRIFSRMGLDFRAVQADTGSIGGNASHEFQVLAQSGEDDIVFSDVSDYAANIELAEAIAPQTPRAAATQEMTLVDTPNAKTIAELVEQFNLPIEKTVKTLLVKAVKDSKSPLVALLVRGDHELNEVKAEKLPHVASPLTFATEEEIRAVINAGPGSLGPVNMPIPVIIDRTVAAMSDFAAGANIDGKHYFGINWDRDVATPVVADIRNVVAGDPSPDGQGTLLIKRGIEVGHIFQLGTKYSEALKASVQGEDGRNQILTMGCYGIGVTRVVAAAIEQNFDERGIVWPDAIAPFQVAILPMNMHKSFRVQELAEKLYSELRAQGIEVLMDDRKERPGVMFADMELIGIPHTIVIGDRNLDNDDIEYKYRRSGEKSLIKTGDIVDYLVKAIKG

Homo sapiens [33] = organism: Homo sapiens; assay: Inhibition of human ProRS expressed in Escherichia coli assessed as generation of inorganic monophosphate by pre-transfer editing-based experiment; settings: dose 0-100 µM, DDE = dose-dependent effect
[34] = target: T2, Proline--tRNA ligase (Salmonella typhi); assay: Inhibition of Salmonella typhi ProRS expressed in Escherichia coli assessed as generation of inorganic monophosphate by pre-transfer editing-based experiment; settings: Salmonella enterica subsp. enterica serovar Typhi; dose 0-100 µM; DDE = dose-dependent effect
Staphylococcus aureus [35] = assay: Bacteriostatic effect against methicillin-resistant Staphylococcus aureus 252 assessed as decrease in CFU/ml at MIC measured for 24 hrs by CLSI based time-kill kinetic assays; format: functional

Row | SMILES | CC50 [2] | MIC (Escherichia coli [3]) | Kd [4] | MIC (Staphylococcus aureus [5]) | MIC (Staphylococcus aureus [6]) | Kd [7] | MIC (Shigella flexneri) | Kd [9] | Kd [10] | Kd [11] | IC50 [14] | Kd [17] | ΔTm (Homo sapiens [18]) | MIC (Salmonella typhi) | MIC (Staphylococcus aureus [21]) | Kd [22] | ΔTm (Staphylococcus aureus [25]) | MIC (Staphylococcus aureus [28]) | other results
1 | O=C(C[C@@H]1CCCCN1)Cn1cnc2cc(Cl)c(F)cc2c1=O | 0.076 µM | 1 mg/L (≈ 2.96 µM) | 376 µM | 4 mg/L (≈ 11.8 µM) | 2 mg/L (≈ 5.92 µM) | 205 µM | 1 mg/L (≈ 2.96 µM) | 276 µM | 0.691 µM | 0.0675 µM | 0.18 µM | 8.33 µM | 20.4 °C | 4 mg/L (≈ 11.8 µM) | 1 mg/L (≈ 2.96 µM) | 0.0303 µM | 10.2 °C | 1 mg/L (≈ 2.96 µM) | MIC (Escherichia coli [1]): 8 mg/L; Ratio (Escherichia coli [8]): 16; Ratio (Staphylococcus aureus [12]): 8; Activity (Staphylococcus aureus [13]): 2.1 log10CFU/ml; selectivity ratio [15]: 3600; MBC (Staphylococcus aureus [16]): 8 mg/L (≈ 23.7 µM); Activity (Escherichia coli [19]): Active; Activity (Staphylococcus aureus [20]): Active; fold change (FC) (Staphylococcus aureus [23]): 15; MIC (Staphylococcus aureus [24]): 4 mg/L; Activity (Escherichia coli [26]): 1.6 log10CFU/ml; fold change (FC) (Escherichia coli [27]): 16
2 | O=C(CC1NCCCC1O)Cn1cnc2cc(Br)c(Cl)cc2c1=O (stereo not drawn) [HALOFUGINONE] | 4.32 µM | 64 mg/L (≈ 154 µM) | 1020 µM | > 64 mg/L | > 64 mg/L | 628 µM | 64 mg/L (≈ 154 µM) | 781 µM | 5.51 µM | 0.423 µM | 0.66 µM | 11.6 µM | 13.6 °C and 17.4 °C | > 64 mg/L | 64 mg/L (≈ 154 µM) | 0.216 µM | 6.9 °C and 6 °C | 64 mg/L (≈ 154 µM) | inhibition (Saccharomyces cerevisiae): Dde; ΔTm [29]: 17.4 °C; inhibition [30]: Dde; inhibition (Staphylococcus aureus [31]): Dde; ΔTm [32]: 12.5 °C; inhibition (Homo sapiens [33]): Dde; inhibition [34]: Dde
3 | C/C(=C\C(=O)OCCCCCCCCC(=O)O)C[C@@H]1OC[C@H](C[C@@H]2O[C@H]2[C@@H](C)[C@H](C)O)[C@@H](O)[C@H]1O [MUPIROCIN] |  | 32 mg/L (≈ 63.9 µM) |  | 0.13 mg/L (≈ 0.26 µM) | 0.13 mg/L (≈ 0.26 µM) |  | 8 mg/L (≈ 16 µM) |  |  |  |  |  |  | 32 mg/L (≈ 63.9 µM) | 0.13 mg/L (≈ 0.26 µM) |  |  | 0.13 mg/L (≈ 0.26 µM) | Activity (Staphylococcus aureus [35]): 1.2 log10CFU/ml
